The results in this text go back to publication PMC5267425, “Identification of small molecule modulators of HIV-1 Tat and Rev protein accumulation” (Retrovirology, 2017).

Assay [1] concerns p53. The experiment in a line: Western blot of p53. The class given is cell-based. Particulars: 791 30 µM, 833 2 µM, 892 15 µM. As for the experimental part: ELISA for p24 Gag antigen was performed on cell supernatants using kits purchased from Frederick National Laboratory for Cancer Research (Leidos) or XpressBio extended range kit and performed according to manufacturer’s instructions. Protein concentration in cell lysates was quantified by Bradford assay and equal amounts of protein run on 7, 10, 12, or 14% SDS-PAGE, depending on the protein of interest. Following transfer to PVDF (BioRad or Perkin-Elmer), blots were blocked in either 5% Milk-PBS-T (5% Milk, 0.05% Tween-20, 1× PBS) or 3% BSA-PBS-T (3% BSA, 0.05% Tween-20, 1× PBS) prior to incubating with primary antibody (all diluted in 3% BSA-PBS-T). Primary antibodies used were: purified mouse anti-p24 supernatant from anti-HIV-1 Gag hybridoma 183, mouse anti-gp120 hybridoma 902 (NIH AIDS Reagent Program), mouse monoclonal antibody to HIV-1 Rev (Abcam), rabbit polyclonal antibody to HIV-1 Tat (Abcam), mouse monoclonal antibody to p53 (Santa Cruz), rabbit purified IgG for Nap1 (provided by L. Frappier), rabbit polyclonal antibody to GAPDH (Sigma-Aldrich), or mouse monoclonal antibody to α-Tubulin (Sigma-Aldrich). Following incubation with appropriate secondary antibody, blots were visualized by ECL, ECL Plus (Perkin-Elmer), or Clarity Western ECL substrate (BioRad). Quantification of the relative intensity of the detected bands was done using ImageLab software and normalized to corresponding bands of the loading control (GAPDH or α-Tubulin).
For orientation: Immunoblotting shows a protein as a band on a membrane.

For assay [2], the system named is HIV-1 Gag expression in SupT1 NLESG cells. The experiment in a line: Gag (p24) ELISA in SupT1 24STNLESG cells after PMA induction. The following applies: for inhibition of HIV-1 gene expression in CD4+ SupT1 cells: Figure S1; for IC50: Human immunodeficiency virus 1, SUP-T1. It counts as cell-based. The procedure: Additional file 1: Figure S1. 791 and 833 Suppress HIV-1 Gene Expression in SupT1 24NESLG Cell Line. a Schematic of HIV-1 provirus used to generated the stably transduced SupT1 cell line. b Effect of 791 and 833 on Gag expression in SupT1 NLESG cells. Cells were treated with indicated concentrations of 791/833 then HIV-1 expression induced by PMA addition. Media harvested after 24 h was subsequently assayed using Gag (p24) ELISA. Cell viability was measured by an XTT assay. 892 was not active in this cell line at the concentrations tested Additional file 2: Figure S7. Effect of compounds on CEM-GXR cell viability. Evaluation of 791, 833, and 892 on CEM-GXR cell viability in the Guava ViaCount assay. Cells were analyzed after 24 h incubation with the compounds at the indicated concentrations ranging between 0–47 μM (791), 0–5 μM (833), or 0–62.5 μM (892). Results are expressed as the percentage (%) of viable cells relative to DMSO treatment ±SEM of two independent experiments performed in triplicate. Cytotoxic concentration resulting in the death of 50% of the host cells (CC50) relative to DMSO measured by ViaCount assay (Millipore) are listed in Table 1 Additional file 3: Table S1. Mutations in HIV-1 proteins associated with resistance to ARVs Additional file 4: Figure S2.Pattern of HIV-1 RNA splicing. Shown at the top is the organization of the HIV-1 proviral genome indicating the position of the multiple 5′ splice donor sites (SD1–SD4) and 3′ splice acceptor sites (SA1–SA7) used in splicing of pre-mRNA. In the middle is an illustration of the alternatively spliced RNAs generated by processing of the HIV-1 genomic RNA. Indicated are the common (open boxes) and alternative exons (closed boxes) used in the generation of the SS (4 kb) and MS (1.8 kb) viral RNAs. At the bottom is a list of the nomenclature used to refer to the exon composition of the individual RNAs generated for both the SS and MS classes of HIV-1 RNAs Additional file 5: Figure S3. Characterization of HeLa rtTA HIVGagGFP cell line. a Representative images of HeLa rtTA HIVGagGFP C7 cells treated with DMSO in the absence (uninduced) or presence (induced) of doxycyclin (N ≥ 3). Cells were viewed at 630X (oil immersion) magnification. Images are cropped to show a representative field of view. b The dose range of the compounds which inhibit HIV-1 GagGFP expression in HeLa rtTA HIVGagGFP C7 cells was measured by mean fluorescence intensity and expressed relative to fluorescence intensity in DMSO-treated samples (N ≥ 3, *p ≤ 0.05, **p ≤ 0.01, and ***p ≤ 0.001). The effect of the compounds on cellular metabolism at the indicated concentrations was measured using an XTT assay as a readout of viable cells and expressed relative to absorbance reads of DMSO-treated samples (N ≥ 3, *p ≤ 0.05, **p ≤ 0.01, and ***p ≤ 0.001). Error bars indicate standard error of the mean (SEM) Additional file 6: Figure S4. […] MG132 (10 μM) was added for 8 h as an additional control to determine whether inhibition of the proteasome prevents protein degradation. All uninduced (unind.) and 0 h samples were treated with DMSO. GAPDH serves as loading control. b Summary of effect of compounds on HIV-1 Tat degradation. Band volume intensities of both p14 and p16 Tat isoforms were calculated for each treatment relative to that of the DMSO control treatment and were then normalized to corresponding GAPDH bands (N ≥ 3, except for 833, N = 1–2). […]
(An ELISA detects its analyte on a solid surface through an enzyme-linked reagent.)

The structures appear in SMILES notation.

Usually IC50 stands for the concentration needed to halve the response being measured. Read a low IC50 as higher potency. As for `Cc1cc(NCc2cccnc2)n2ncc(-c3ccc(Cl)cc3)c2n1` [Compound 791, 3-(4-chlorophenyl)-5-methyl-N-(3-pyridinylmethyl)pyrazolo[1,5-a]pyrimidin-7-amine], the p53 expression result in assay [1] is “approximately twofold”. Also, in assay [2], the “inhibition of HIV-1 gene expression in CD4+ SupT1 cells” value (shortened to “inhibition of HIV-1 gene expression”) is “maintained their inhibition” and the IC50 amounted to 26 µM.
`COc1ccc(C=NNC(=O)c2ccccc2O)cc1O` [Compound 892, 2-hydroxy-N′-(3-hydroxy-4-methoxybenzylidene)benzohydrazide]: in assay [1], the p53 expression entry is reported as “no effect”. Further, in assay [2], the “inhibition of HIV-1 gene expression” value was “not active”.
`O=C(NC(=S)NNC(=O)c1ccccc1O)c1ccc(-c2ccccc2)cc1` [Compound 833, N-([2-(2-hydroxybenzoyl)hydrazino]carbonothioyl}-4-biphenylcarboxamide]: the p53 expression entry in assay [1] is “no effect”. Further, in assay [2], the “inhibition of HIV-1 gene expression” value is given as “maintained their inhibition” and the IC50 was determined as 3.5 µM.
